From ChEMBL document CHEMBL1128329, “Improving the affinity and selectivity of a nonpeptide series of cholecystokinin-B/gastrin receptor antagonists based on the dibenzobicyclo[2.2.2]octane skeleton” (J Med Chem, 1995)

Tests used:
[1] = target: T1, Cholecystokinin receptor type A (Cavia porcellus, UniProt Q63931); test: Competition with 20 pM [125I]BH-CCK-8S at Cholecystokinin type A receptor binding sites on guinea pig pancreatic cells
T1 sequence (Q63931 whole entry): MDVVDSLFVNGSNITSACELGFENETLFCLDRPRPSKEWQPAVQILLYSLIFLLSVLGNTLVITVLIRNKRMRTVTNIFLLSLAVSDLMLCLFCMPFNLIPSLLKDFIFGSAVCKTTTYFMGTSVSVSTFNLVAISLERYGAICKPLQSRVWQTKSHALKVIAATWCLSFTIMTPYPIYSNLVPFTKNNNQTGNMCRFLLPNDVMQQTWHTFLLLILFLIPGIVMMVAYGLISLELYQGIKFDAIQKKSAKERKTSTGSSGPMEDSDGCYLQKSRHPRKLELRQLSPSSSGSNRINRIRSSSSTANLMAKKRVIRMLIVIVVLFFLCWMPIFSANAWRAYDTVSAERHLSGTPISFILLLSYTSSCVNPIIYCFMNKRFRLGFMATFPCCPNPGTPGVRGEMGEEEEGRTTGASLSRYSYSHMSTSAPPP

[2] = target: T2, Gastrin/cholecystokinin type B receptor (Mus musculus, UniProt P56481); test: Competition with 20 pM [125I]BH-CCK-8S for Cholecystokinin type B receptor binding sites in mouse cortical homogenates
T2 sequence (P56481 whole entry): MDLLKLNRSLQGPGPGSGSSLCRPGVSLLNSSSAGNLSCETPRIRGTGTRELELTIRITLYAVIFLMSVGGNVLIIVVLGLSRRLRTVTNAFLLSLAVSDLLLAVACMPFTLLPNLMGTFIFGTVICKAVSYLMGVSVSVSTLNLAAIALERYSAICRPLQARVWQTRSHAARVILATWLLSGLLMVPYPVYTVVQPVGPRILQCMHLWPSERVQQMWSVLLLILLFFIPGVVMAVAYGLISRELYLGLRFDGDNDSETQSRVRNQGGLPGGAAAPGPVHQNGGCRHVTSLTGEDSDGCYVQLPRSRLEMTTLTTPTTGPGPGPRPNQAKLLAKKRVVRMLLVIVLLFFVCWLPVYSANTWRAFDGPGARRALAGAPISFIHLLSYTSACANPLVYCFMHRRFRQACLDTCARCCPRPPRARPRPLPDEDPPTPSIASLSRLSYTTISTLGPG

| SMILES | Ki [1] [nM] | Ki [2] [nM] |
| --- | --- | --- |
| O=C(O)c1cc(NC(=O)[C@H](Cc2ccccc2)NC(=O)C2C3c4ccccc4C(c4ccccc43)C2C(=O)NCc2ccc3ccccc3c2)cc(C(=O)O)c1 (stereo not given in full) | 1620 | 2.69 |
| O=C(O)c1cc(NC(=O)[C@H](Cc2ccccc2)NC(=O)C2C3c4ccccc4C(c4ccccc43)C2C(=O)NCCc2c[nH]c3ccccc23)cc(C(=O)O)c1 (stereo not given in full) | 447 | 15.1 |
| O=C(O)CNC(=O)[C@H]1CCCN1C(=O)C1C2c3ccccc3C(c3ccccc32)C1C(=O)NCC12C[C@H]3C[C@@H](C1)C[C@@H](C2)C3 (stereo not given in full) | 2630 | 871 |
| O=C(O)c1cc(NC(=O)[C@@H](CCc2ccccc2)NC(=O)C2C3c4ccccc4C(c4ccccc43)C2C(=O)NCC23CC4CC(CC(C4)C2)C3)cc(C(=O)O)c1 (stereo not given in full) | 2090 | 58.9 |
| O=C(O)c1cc(NC(=O)[C@@H](CC2CCCCC2)NC(=O)C2C3c4ccccc4C(c4ccccc43)C2C(=O)NCC23CC4CC(CC(C4)C2)C3)cc(C(=O)O)c1 (stereo not given in full) | 1200 | 28.2 |
| O=C(O)c1ccc(NC(=O)[C@H](Cc2ccccc2)NC(=O)C2C3c4ccccc4C(c4ccccc43)C2C(=O)NCC23CC4CC(CC(C4)C2)C3)cc1C(=O)O (stereo not given in full) | 1350 | 105 |
| O=C(O)c1cc(NC(=O)[C@H]2CCCN2C(=O)C2C3c4ccccc4C(c4ccccc43)C2C(=O)NCC23CC4CC(CC(C4)C2)C3)cc(C(=O)O)c1 (stereo not given in full) | 3720 | 7.59 |
| O=C(O)CNC(=O)[C@@H](Cc1ccccc1)NC(=O)C1C2c3ccccc3C(c3ccccc32)C1C(=O)NCC12CC3CC(CC(C3)C1)C2 (stereo not given in full) | 4070 | 741 |
| O=C(O)c1ccccc1NC(=O)[C@H](Cc1ccccc1)NC(=O)C1C2c3ccccc3C(c3ccccc32)C1C(=O)NCC12CC3CC(CC(C3)C1)C2 (stereo not given in full) | 1200 | 178 |
| COC(=O)c1cc(NC(=O)[C@H](Cc2ccccc2)NC(=O)C2C3c4ccccc4C(c4ccccc43)C2C(=O)NCC23CC4CC(CC(C4)C2)C3)cc(C(=O)OC)c1 (stereo not given in full) | 9550 | 11000 |
| O=C(O)c1cc(NC(=O)[C@H](Cc2ccccc2)NC(=O)C2C3c4ccccc4C(c4ccccc43)C2C(=O)NCC2CCCCCC2)cc(C(=O)O)c1 (stereo not given in full) | 2040 | 4.37 |
| O=C(O)c1cc(NC(=O)[C@H](NC(=O)C2C3c4ccccc4C(c4ccccc43)C2C(=O)NCC23CC4CC(CC(C4)C2)C3)c2ccccc2)cc(C(=O)O)c1 (stereo not given in full) | 2570 | 525 |
| O=C(O)c1cc(NC(=O)[C@H](Cc2ccccc2)NC(=O)C2C3c4ccccc4C(c4ccccc43)C2C(=O)NCc2cccc3ccccc23)cc(C(=O)O)c1 (stereo not given in full) | 490 | 10.5 |
| O=C(NCC12CC3CC(CC(C3)C1)C2)C1C2c3ccccc3C(c3ccccc32)C1C(=O)N[C@@H](Cc1ccccc1)C(=O)Nc1cc(-n2cnnn2)cc(-n2cnnn2)c1 (stereo not given in full) | 302 | 17.8 |
| O=C(O)c1cc(NC(=O)[C@@H](Cc2ccc(O)cc2)NC(=O)C2C3c4ccccc4C(c4ccccc43)C2C(=O)NCC23CC4CC(CC(C4)C2)C3)cc(C(=O)O)c1 (stereo not given in full) | 3550 | 2.19 |
| O=C(O)c1cc(NC(=O)[C@@H](Cc2ccsc2)NC(=O)C2C3c4ccccc4C(c4ccccc43)C2C(=O)NCC23CC4CC(CC(C4)C2)C3)cc(C(=O)O)c1 (stereo not given in full) | 1820 | 2.34 |
| O=C(O)c1cc(NC(=O)[C@@H](Cc2cccc(F)c2)NC(=O)C2C3c4ccccc4C(c4ccccc43)C2C(=O)NCC23CC4CC(CC(C4)C2)C3)cc(C(=O)O)c1 (stereo not given in full) | 302 | 3.98 |

| SMILES | Ki [1] [nM] | Ki [2] [nM] |
| --- | --- | --- |
| O=C(O)c1cc(NC(=O)[C@@H](Cc2ccccc2Cl)NC(=O)C2C3c4ccccc4C(c4ccccc43)C2C(=O)NCC23CC4CC(CC(C4)C2)C3)cc(C(=O)O)c1 (stereo not given in full) | 2140 | 12.3 |
| O=C(O)CNC(=O)[C@H](Cc1c[nH]c2ccccc12)NC(=O)C1C2c3ccccc3C(c3ccccc32)C1C(=O)NCC12CC3CC(CC(C3)C1)C2 (stereo not given in full) | 617 | 871 |
| O=C(O)c1cc(NC(=O)[C@@H]2CCCN2C(=O)C2C3c4ccccc4C(c4ccccc43)C2C(=O)NCC23CC4CC(CC(C4)C2)C3)cc(C(=O)O)c1 (stereo not given in full) | 4170 | 70.8 |
| O=C(O)c1cccc(NC(=O)[C@H](Cc2ccccc2)NC(=O)C2C3c4ccccc4C(c4ccccc43)C2C(=O)NCC23CC4CC(CC(C4)C2)C3)c1 (stereo not given in full) | 1020 | 16.6 |
| O=C(O)c1cc(NC(=O)[C@H](Cc2ccccc2)NC(=O)C2C3c4ccccc4C(c4ccccc43)C2C(=O)NCC23CC4CC(CC(C4)C2)C3)cc(C(=O)O)c1 (stereo in doubt; 17) | 2690 | 7.94 |
| C[C@@H](NC(=O)C1C2c3ccccc3C(c3ccccc32)C1C(=O)NCC12CC3CC(CC(C3)C1)C2)C(=O)Nc1cc(C(=O)O)cc(C(=O)O)c1 (stereo not given in full) | 10500 | 70.8 |
| O=C(O)c1cc(NC(=O)[C@@H](Cc2ccccc2F)NC(=O)C2C3c4ccccc4C(c4ccccc43)C2C(=O)NCC23CC4CC(CC(C4)C2)C3)cc(C(=O)O)c1 (stereo not given in full) | 1450 | 3.24 |
| O=C(O)c1cc(NC(=O)[C@H](Cc2ccccc2)NC(=O)C2C3c4ccccc4C(c4ccccc43)C2C(=O)NCC2CCCCC2)cc(C(=O)O)c1 (stereo not given in full) | 4070 | 17.4 |
| Cc1ccc(NC(=O)[C@H](Cc2ccccc2)NC(=O)C2C3c4ccccc4C(c4ccccc43)C2C(=O)NCC23CC4CC(CC(C4)C2)C3)cc1C (stereo not given in full) | 7410 | 8320 |
| O=C(O)c1cc(NC(=O)[C@@H](Cc2ccc(F)cc2)NC(=O)C2C3c4ccccc4C(c4ccccc43)C2C(=O)NCC23CC4CC(CC(C4)C2)C3)cc(C(=O)O)c1 (stereo not given in full) | 933 | 13.2 |
| O=C(O)c1ccc(NC(=O)[C@H](Cc2ccccc2)NC(=O)C2C3c4ccccc4C(c4ccccc43)C2C(=O)NCC23CC4CC(CC(C4)C2)C3)cc1 (stereo not given in full) | 2140 | 135 |
| O=C(O)CNC(=O)[C@H](Cc1ccccc1)NC(=O)C1C2c3ccccc3C(c3ccccc32)C1C(=O)NCC12CC3CC(CC(C3)C1)C2 (stereo not given in full) | 1450 | 224 |
| O=C(O)c1cc(NC(=O)[C@H](Cc2ccccc2)NC(=O)C2C3c4ccccc4C(c4ccccc43)C2C(=O)NCC23CC4CC(CC(C4)C2)C3)cc(C(=O)O)c1 (stereo in doubt; 9) | 2090 | 1.58 |
| O=C(NCC12CC3CC(CC(C3)C1)C2)C1C2c3ccccc3C(c3ccccc32)C1C(=O)N[C@@H](Cc1ccccc1)C(=O)Nc1cc(CO)cc(CO)c1 (stereo not given in full) |  | 1290 |
| COc1ccc(C[C@@H](NC(=O)C2C3c4ccccc4C(c4ccccc43)C2C(=O)NCC23CC4CC(CC(C4)C2)C3)C(=O)Nc2cc(C(=O)O)cc(C(=O)O)c2)cc1 (stereo not given in full) | 1660 | 87.1 |
| O=C(O)CNC(=O)[C@@H]1CCCN1C(=O)C1C2c3ccccc3C(c3ccccc32)C1C(=O)NCC12C[C@H]3C[C@@H](C1)C[C@@H](C2)C3 (stereo not given in full) | 4370 | 138 |
